The term IC50 denotes the concentration that inhibits the measured activity by half. Broadly, the Ki is a dissociation constant, usually derived from enzyme kinetics or from competition with a known ligand. A low value points to tighter binding. One may read the inhibition as the change of the read-out against control, counted positive when it falls. As a reminder, the Papp is a coefficient for how fast a substance crosses the barrier. High values mean fast passage, low ones slow passage. A word on the fraction unbound: it is free concentration divided by total concentration. By Cmax is commonly meant the highest concentration seen after dosing. By Tmax is commonly meant the time from dosing to the highest level.

For data set [1], the target named is T1, Human plasma kallikrein (Homo sapiens (Human), UniProt P03952). The data set is described as follows: Determination of the IC50 for plasma kallikrein. It counts as biochemical. The following applies: 25° C., substrate H-DPro-Phe-Arg-AFC; read-out: IC50 (human PKal). The procedure:
Human plasma kallikrein (Protogen) was incubated at 25° C. with the fluorogenic substrate H-DPro-Phe-Arg-AFC and various concentrations of the test compound. Residual enzyme activity (initial rate of reaction) was determined by measuring the change in […] at 410 nm and the IC50 value for the test compound was determined.

The target of data set [2] is T1, Human plasma kallikrein. The data set is described as follows: Determination of the Ki for plasma kallikrein (mixed-model inhibition). To be noted: for Ki: human plasma kallikrein, mixed-model inhibition equation. Type of data set: biochemical.
The next data set has as its target Human KLK1 (Homo sapiens (Human), UniProt P06870). In words: Determination of the IC50 for KLK1. To be noted: 25° C., substrate H-DVal-Leu-Arg-AFC. Type of data set: biochemical. As to the method: Human KLK1 (Callbiochem) was incubated at 25° C. with the fluorogenic substrate H-DVal-Leu-Arg-AFC and various concentrations of the test compound. Residual enzyme activity (initial rate of reaction) was determined by measuring the change in […] at 410 nm and the IC50 value for the test compound was determined.

Another data set has as its target Human FXIa (Homo sapiens (Human), UniProt P03951). In words: Determination of the % inhibition / IC50 for FXIa. Type of data set: biochemical. The following applies: for inhibition at 40 µM: 40 μM test compound, read-out: % Inhibition @ 40 μM (human FXIa); for IC50: 25° C., substrate Z-Gly-Pro-Arg-AFC. The procedure: FXIa inhibitory activity in vitro was determined using standard published methods (see e.g. Johansen et al., Int. J. Tiss. Reac. 1986, 8, 185; Shori et al., Biochem. Pharmacol., 1992, 43, 1209; Sturzebecher et al., Biol. Chem. Hoppe-Seyler, 1992, 373, 1025). […]

The next data set deals with Human Factor XIIa (Homo sapiens (Human), UniProt P00748). The data set is described as follows: Factor XIIa inhibitory activity in vitro. It counts as biochemical. To be noted: 25° C., substrate H-DPro-Phe-Arg-AFC; read-out: IC50 (human FXIIa). The procedure:
Human Factor XIIa (Enzyme Research Laboratories) was incubated at 25° C. with the fluorogenic substrate H-DPro-Phe-Arg-AFC and various concentrations of the test compound. Residual enzyme activity (initial rate of reaction) was determined by measuring the change in […] at 410 nm and the IC50 value for the test compound was determined.

Another data set addresses plasmin (Homo sapiens (Human), UniProt P00747). The data set is described as follows: Determination of enzyme selectivity: plasmin. It counts as biochemical. To be noted: substrate at Km concentration.
Another data set has as its target thrombin (Homo sapiens (Human), UniProt P00734). In words: Determination of enzyme selectivity: thrombin. Type of data set: biochemical. The following applies: substrate at Km concentration.
A short description of data set [3]: In vitro permeability, Caco-2 model for oral absorption. Type of data set: in vitro ADME. The following applies: human, apical to basolateral, 50 μM test compound, 37° C. The procedure, abridged: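 Caco-2 monolayers grown on collagen inserts for 3 days, with 50 μM compound added apically and incubated 1 hour at 37° C with shaking. Apical-to-basolateral transport measured by LCMS in both compartments. Monolayer integrity checked by TEER before and after, and by Lucifer Yellow flux.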
(Caco-2 monolayers are a common model of the intestinal barrier.)

A short description of data set [4]: Plasma protein binding (PPB), rapid equilibrium dialysis, rat plasma. The following applies: 5 μM test compound, dialysis 5 hrs at 37° C. It counts as in vitro ADME. (In general: In equilibrium dialysis only unbound substance equilibrates across the membrane.)
Data set [5] is described as follows: Predicted plasma clearance (Clp), well-stirred model, rat. Type of data set: in vitro ADME. To be noted: percentage of hepatic blood flow.
Data set [6] in a line: Pharmacokinetics following a single oral dose in male Sprague-Dawley rats. It counts as in vivo. To be noted: rat, single po dose (nominal 10 mg/kg; actual dose per row in column Dose po), 10% DMSO/10% cremophor/80% SWFI, plasma.

The structures appear in SMILES notation. “And” between values parts separate entries of the source, which are not always exact repeats. Identical values can stand only once.

T1 sequence (P03952 391-638): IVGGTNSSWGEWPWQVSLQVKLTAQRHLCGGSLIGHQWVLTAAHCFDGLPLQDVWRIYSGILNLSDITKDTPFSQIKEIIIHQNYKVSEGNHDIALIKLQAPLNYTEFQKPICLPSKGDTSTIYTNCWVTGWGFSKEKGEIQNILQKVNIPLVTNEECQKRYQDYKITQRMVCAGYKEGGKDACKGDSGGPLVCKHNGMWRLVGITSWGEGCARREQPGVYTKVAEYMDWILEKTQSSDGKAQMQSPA
T1 sequence (P03952 20-390): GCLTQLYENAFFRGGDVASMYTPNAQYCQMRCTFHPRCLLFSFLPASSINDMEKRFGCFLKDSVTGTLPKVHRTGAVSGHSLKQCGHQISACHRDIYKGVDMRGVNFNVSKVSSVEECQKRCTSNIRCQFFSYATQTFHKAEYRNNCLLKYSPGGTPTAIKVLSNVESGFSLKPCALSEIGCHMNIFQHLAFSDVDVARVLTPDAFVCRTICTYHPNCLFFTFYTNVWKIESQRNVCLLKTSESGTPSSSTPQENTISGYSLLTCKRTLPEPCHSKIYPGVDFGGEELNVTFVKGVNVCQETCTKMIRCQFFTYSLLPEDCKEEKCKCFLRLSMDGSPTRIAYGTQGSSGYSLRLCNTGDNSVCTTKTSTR
Sequence of Human FXIa (P03951 388-625): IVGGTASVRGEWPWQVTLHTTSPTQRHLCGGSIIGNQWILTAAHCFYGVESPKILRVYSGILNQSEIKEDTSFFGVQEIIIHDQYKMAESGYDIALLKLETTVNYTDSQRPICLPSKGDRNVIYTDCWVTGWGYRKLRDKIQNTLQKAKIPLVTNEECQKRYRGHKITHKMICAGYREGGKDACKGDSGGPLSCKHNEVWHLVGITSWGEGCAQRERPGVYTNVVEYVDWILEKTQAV
Sequence of Human FXIa (P03951 19-387): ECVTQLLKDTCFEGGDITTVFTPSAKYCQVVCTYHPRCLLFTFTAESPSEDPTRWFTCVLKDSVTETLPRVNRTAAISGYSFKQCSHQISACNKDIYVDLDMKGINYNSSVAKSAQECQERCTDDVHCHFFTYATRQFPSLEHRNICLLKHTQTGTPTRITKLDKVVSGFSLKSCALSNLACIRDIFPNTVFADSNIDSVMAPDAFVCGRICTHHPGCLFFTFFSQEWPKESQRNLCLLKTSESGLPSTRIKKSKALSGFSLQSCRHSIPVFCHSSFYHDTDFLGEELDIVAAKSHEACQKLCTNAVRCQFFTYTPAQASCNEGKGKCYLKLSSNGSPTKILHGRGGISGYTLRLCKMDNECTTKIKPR
Sequence of Human Factor XIIa (P00748 373-615): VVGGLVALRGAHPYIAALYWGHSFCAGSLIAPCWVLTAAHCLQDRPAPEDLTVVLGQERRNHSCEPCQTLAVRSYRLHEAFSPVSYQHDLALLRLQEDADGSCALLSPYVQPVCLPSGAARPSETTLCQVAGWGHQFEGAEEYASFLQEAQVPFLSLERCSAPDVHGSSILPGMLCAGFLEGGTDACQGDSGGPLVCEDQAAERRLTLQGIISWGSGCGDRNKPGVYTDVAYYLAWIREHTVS
Sequence of Human KLK1 (P06870 25-262): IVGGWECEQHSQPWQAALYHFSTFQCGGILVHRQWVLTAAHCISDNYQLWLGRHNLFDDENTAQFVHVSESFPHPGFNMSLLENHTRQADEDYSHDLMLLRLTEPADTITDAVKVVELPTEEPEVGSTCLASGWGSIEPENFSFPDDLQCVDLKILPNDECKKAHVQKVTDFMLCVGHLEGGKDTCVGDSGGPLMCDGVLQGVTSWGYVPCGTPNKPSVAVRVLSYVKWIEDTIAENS
Sequence of plasmin (P00747 581-810): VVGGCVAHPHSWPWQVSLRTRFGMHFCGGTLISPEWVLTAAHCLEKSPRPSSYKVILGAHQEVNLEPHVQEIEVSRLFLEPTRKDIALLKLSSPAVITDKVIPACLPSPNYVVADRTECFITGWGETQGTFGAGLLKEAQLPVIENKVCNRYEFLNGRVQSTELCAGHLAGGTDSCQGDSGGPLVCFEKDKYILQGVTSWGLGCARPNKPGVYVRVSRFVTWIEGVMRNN
Sequence of plasmin (P00747 97-580): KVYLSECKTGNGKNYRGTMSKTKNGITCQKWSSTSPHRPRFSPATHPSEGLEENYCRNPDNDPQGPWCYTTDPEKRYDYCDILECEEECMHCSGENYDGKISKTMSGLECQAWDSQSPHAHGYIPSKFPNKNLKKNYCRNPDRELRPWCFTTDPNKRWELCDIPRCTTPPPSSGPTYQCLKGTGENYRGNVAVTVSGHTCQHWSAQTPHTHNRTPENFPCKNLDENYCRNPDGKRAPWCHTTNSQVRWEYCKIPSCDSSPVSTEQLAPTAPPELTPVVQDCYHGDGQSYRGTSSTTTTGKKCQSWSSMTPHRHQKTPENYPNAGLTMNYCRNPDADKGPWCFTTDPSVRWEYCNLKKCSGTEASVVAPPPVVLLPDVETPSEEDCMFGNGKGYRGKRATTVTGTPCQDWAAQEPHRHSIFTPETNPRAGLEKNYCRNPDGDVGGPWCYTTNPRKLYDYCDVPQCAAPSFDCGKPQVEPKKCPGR
Protocol for plasmin: (§1) Human serine protease enzymes plasmin, thrombin and trypsin were assayed for enzymatic activity using an appropriate fluorogenic substrate. Protease activity was measured by monitoring the accumulation of liberated fluorescence from the substrate over 5 minutes. The linear rate of fluorescence increase per minute was expressed as percentage (%) activity. The Km for the cleavage of each substrate was determined by standard transformation of the Michaelis-Menten equation.
Protocol for thrombin: as §1

In the case of `COCc1nn(Cc2ccc(Cn3ccccc3=O)cc2)cc1C(=O)NCc1c(-n2cnnn2)ccc(OC)c1F` [Example 39, N-{[2-Fluoro-3-methoxy-6-(1,2,3,4-tetrazol-1-yl)phenyl]methyl}-3-(methoxymethyl)-1-({4-[(2-oxopyridin-1-yl)methyl]phenyl}methyl)pyrazole-4-carboxamide], the IC50 at Human plasma kallikrein [1] was 0.0006 µM; on Human KLK1, over 4 µM; on Human FXIa, 3.7 µM; on Human Factor XIIa it was over 4 µM; on plasmin it was 31.2 µM; against thrombin, 19.3 µM. On Human plasma kallikrein [2], this compound yielded a Ki of 0.00026 µM. The Alpha at Human plasma kallikrein [2] (parameter of the mixed-model equation indicating mechanism of inhibition) stood at 1.7. The inhibition at 40 µM at Human FXIa is 91%. The compound further had a Papp at 1 h, 50 μM in data set [3] of 6 ×10⁻⁶ cm/s. Besides, in data set [4], the fraction unbound at 5 h, 5 μM was 0.11. For the same compound, the “Predicted in vivo rat Clp (% LBF)” value in data set [5] was 5 % LBF. Further, in data set [6], the Cmax is 187 ng/mL. The Tmax in data set [6] was 30 min.

`COCc1nn(Cc2cnc(N3CCCC3)nc2)cc1C(=O)NCc1c(-n2cnnn2)ccc(OC)c1F` [Example 79, N-{[2-Fluoro-3-methoxy-6-(1,2,3,4-tetrazol-1-yl)phenyl]methyl}-3-(methoxymethyl)-1-{[2-(pyrrolidin-1-yl)pyrimidin-5-yl]methyl}pyrazole-4-carboxamide]: the IC50 is 0.0015 µM at Human plasma kallikrein [1]; over 40 µM against Human KLK1; 0.127 µM against Human FXIa; over 40 µM on Human Factor XIIa; 12 µM at plasmin; 7.31 µM against thrombin. The Ki on Human plasma kallikrein [2] was 0.00038 µM and 0.00023 µM. Besides, the inhibition at 40 µM on Human FXIa worked out at 96%. For the same compound, the Papp at 1 h, 50 μM in data set [3] is 19 ×10⁻⁶ cm/s. The same compound had a fraction unbound at 5 h, 5 μM in data set [4] of 0.05. Further, in [5], the “Predicted in vivo rat Clp (% LBF)” value is given as 3 % LBF. For the same compound, the Cmax in data set [6] came to 807 ng/mL. Also, the Tmax in [6] was 45 min.

Source of the values: patent publication US11180484B2, “Pyrazole derivatives as plasma kallikrein inhibitors” (KALVISTA PHARMACEUTICALS LIMITED, priority 2016, dated 2021).
